Source: patent US8129381B2, “Caspase inhibitors and uses thereof” (Vertex Pharmaceuticals Incorporated, priority 2002, dated 2012)
Blank lines part the entries; values can stand above or below the molecule they belong to.

Assays:
[1] = tested on: IL-1β secretion from human whole blood; experiment: Inhibition of IL-1β secretion from whole blood; type: cell-based; settings: human whole blood diluted 1:2 in PBS, LPS 5 ng/ml, 18 hours, ELISA
Description: Human blood is freshly drawn from healthy donors and diluted 1:2 in PBS. To 500 μl of diluted blood […] of prediluted test compound in RPMI medium and […] LPS (5 ng/ml final concentration on the plate) are added (LPS, Serotype 0111:B4, Sigma L3012). After stimulation for 18 hours supernatants are collected and assayed for IL-1β levels using the appropriate ELISA kit (R&D systems).
Compounds with an IC50>10 μM are listed as “A”. Compounds with an IC50 between 1 μM and 10 uM are listed as “B”. Compounds with an IC50<1 μM are listed as “C”.

[2] = tested on: rat cortical neurons; experiment: Hypoxia-induced apoptosis of rat cortical neurons; type: cell-based, Wistar rat; settings: Cortical neurone, oxygen-depleted serum-free medium, Cell Death Detection ELISA (DNA fragmentation)
Description: Cortical neurons are dissociated from Wistar rat embryos (E17) by a modification of the procedure of Rogers et al., Brain Res. Bulletin, 44:131 (1998). Briefly, cerebral cortices are isolated aseptically from 15-20 Wistar rat embryos. A cell suspension is prepared by mincing the cerebral cortices and digesting them with papain. Cells are washed with ovomucoid enzyme inhibitor and DNaseI and plated onto Poly-D lysine coated plates in high glucose DMEM containing 10% heat-inactivated fetal calf serum, L-glutamine, penicillin and streptomycin. The yield of neurons is […] per embryo and they are 80-90% viable as assessed by Trypan blue exclusion.
The neurons are cultured in complete medium at 37° C. in a normal atmosphere for 48 hours prior to the hypoxia experiments. For hypoxia, the normal cell medium is replaced by oxygen-depleted serum-free medium. Cells are incubated in an atmosphere of 95% N2/5% CO2 for various lengths of time. Compounds are dissolved in DMSO at 100 mM then diluted in medium and added to the culture from time=0. The level of apoptosis is measured using a Cell Death Detection ELISA kit (Roche) which detects DNA fragmentation. Plates are read at 405 nm. Controls included cells cultured in aerobic conditions in serum-containing medium (+serum) and cells cultured in aerobic conditions in serum-deprived medium (−serum).
Compounds with an IC50>0.5 μM are listed as “A”. Compounds with an IC50 between 0.1 μM and 0.5 uM are listed as “B”. Compounds with an IC50<0.1 μM are listed as “C”.

[3] = molecular target: T1, recombinant, purified human Caspase-3 (Homo sapiens, UniProt P42574); experiment: Enzyme assay, caspase inhibition (fluorogenic substrate cleavage); type: biochemical; settings: second order rate constant of enzyme inactivation; substrate Acetyl-Asp-Glu-Val-Asp-amino-4-methylcoumarin
T1 sequence (P42574 29-175 limits assumed): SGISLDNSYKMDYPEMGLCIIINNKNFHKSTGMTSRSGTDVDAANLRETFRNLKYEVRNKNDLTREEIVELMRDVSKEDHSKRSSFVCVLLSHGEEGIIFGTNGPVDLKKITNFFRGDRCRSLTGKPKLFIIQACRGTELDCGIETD
T1 sequence (P42574 176-277 limits assumed): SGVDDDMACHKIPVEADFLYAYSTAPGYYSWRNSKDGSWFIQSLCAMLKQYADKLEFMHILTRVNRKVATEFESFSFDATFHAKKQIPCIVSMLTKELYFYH
Source text: (§1) The assays for caspase inhibition are based on the cleavage of a fluorogenic substrate by recombinant, purified human Caspases −1, −3, −7 or −8. The assays are run in essentially the same way as those reported by Garcia-Calvo et al., J. Biol. Chem. 273, 32608-32613 (1998), using a substrate specific for each enzyme. The substrate for Caspase-1 is Acetyl-Tyr-Val-Ala-Asp-amino-4-methylcoumarin and the substrate for Caspases −3, −7 and −8 is Acetyl-Asp-Glu-Val-Asp-amino-4-methylcoumarin both as disclosed in Garcia-Calvo et al., J. Biol. Chem. 273, 32608-32613 (1998).
(§2) The observed rate of enzyme inactivation at a particular inhibitor concentration, kobs, is computed by direct fits of the data to the equation derived by Thornberry et al., Biochemistry, 33, […] (1994) using a nonlinear least-squares analysis computer program (PRISM 2.0; GraphPad software). To obtain the second order rate constant, kinact, kobs values are plotted against their respective inhibitor concentrations and kinact values are subsequently calculated by computerized linear regression.
(§3) Compounds with kinact(M^−1s^−1)>500000 are listed as “A”. Compounds with kinact(M^−1s^−1) between 100000 and 500000 are listed as “B”. Compounds with kinact(M^−1s^−1)<100000 are listed as “C”.

[4] = molecular target: T2, recombinant, purified human Caspase-1 (Homo sapiens, UniProt P29466); experiment: as above; type: biochemical; settings: second order rate constant of enzyme inactivation; substrate Acetyl-Tyr-Val-Ala-Asp-amino-4-methylcoumarin
T2 sequence (P29466 120-297 limits assumed): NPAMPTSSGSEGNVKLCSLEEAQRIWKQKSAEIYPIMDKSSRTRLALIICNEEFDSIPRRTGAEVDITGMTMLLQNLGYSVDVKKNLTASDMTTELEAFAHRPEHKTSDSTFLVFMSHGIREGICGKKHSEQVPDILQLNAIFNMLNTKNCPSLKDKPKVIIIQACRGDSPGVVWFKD
T2 sequence (P29466 317-404 limits assumed): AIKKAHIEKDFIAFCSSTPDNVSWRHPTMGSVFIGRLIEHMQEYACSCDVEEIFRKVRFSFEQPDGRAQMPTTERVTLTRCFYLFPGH
Source text: as §1, §2, §3

[5] = molecular target: recombinant, purified human Caspase-8 (Homo sapiens, UniProt Q14790); experiment: as above; type: biochemical; settings: second order rate constant of enzyme inactivation; substrate Acetyl-Asp-Glu-Val-Asp-amino-4-methylcoumarin
Source text: as §1, §2, §3

recombinant, purified human Caspase-8, sequence (Q14790 217-374 limits assumed): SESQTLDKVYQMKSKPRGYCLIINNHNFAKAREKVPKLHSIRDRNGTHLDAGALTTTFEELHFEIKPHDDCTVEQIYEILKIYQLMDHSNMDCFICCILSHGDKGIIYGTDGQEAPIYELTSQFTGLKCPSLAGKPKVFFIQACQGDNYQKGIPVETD
recombinant, purified human Caspase-8, sequence (Q14790 385-479 limits assumed): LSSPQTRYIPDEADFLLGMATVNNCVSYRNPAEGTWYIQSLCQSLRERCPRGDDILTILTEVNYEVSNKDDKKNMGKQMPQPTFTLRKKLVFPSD

Structure (SMILES): CC[C@@H](C(=O)N[C@@H](CC(=O)O)C(=O)COc1c(F)c(F)cc(F)c1F)n1cnc2ccccc2c1=O [Compound 6, (S,S)-4-Oxo-3-[2-(4-oxo-4H-quinazolin-3-yl)-butyrylamino]-5-(2,3,5,6-tetrafluoro-phenoxy)pentanoic acid]
IC50 [1]: 1000 to 10000 nM | IC50 [2]: 100 to 500 nM | kinact Caspase-3 [3]: A (Compounds with kinact(M^−1s^−1)>500000 are listed as “A”) | kinact Caspase-1 [4]: B (Compounds with kinact(M^−1s^−1) between 100000 and 500000 are listed as “B”) | kinact Caspase-8 [5]: C (Compounds with kinact(M^−1s^−1)<100000 are listed as “C”)

Structure (SMILES): CC[C@@H](C(=O)N[C@@H](CC(=O)O)C(=O)COc1c(F)c(F)cc(F)c1F)n1cnc2ccc(Cl)cc2c1=O [Compound 5, (S,S)-3-[2-(6-Chloro-4-oxo-4H-quinazolin-3-yl)-butyrylamino]-4-oxo-5-(2,3,5,6-tetrafluoro-phenoxy)pentanoic acid]
IC50 [1]: 1000 to 10000 nM | IC50 [2]: 100 to 500 nM | kinact Caspase-3 [3]: A (Compounds with kinact(M^−1s^−1)>500000 are listed as “A”) | kinact Caspase-1 [4]: A (Compounds with kinact(M^−1s^−1)>500000 are listed as “A”) | kinact Caspase-8 [5]: B (Compounds with kinact(M^−1s^−1) between 100000 and 500000 are listed as “B”)

Structure (SMILES): CC(C)[C@@H](C(=O)NC(CC(=O)O)C(=O)CF)n1ccc2ccc(Cl)cc2c1=O (mixture of isomers) [Compound 18, (S)-3-[2-(7-chloro-1-oxo-1H-isoquinolin-2-yl)-3-methylbutyrylamino]-5-fluoro-4-oxo-pentanoic acid]
IC50 [1]: 1000 to 10000 nM | IC50 [2]: 100 to 500 nM | kinact Caspase-3 [3]: B (Compounds with kinact(M^−1s^−1) between 100000 and 500000 are listed as “B”) | kinact Caspase-1 [4]: B (Compounds with kinact(M^−1s^−1) between 100000 and 500000 are listed as “B”) | kinact Caspase-8 [5]: C (Compounds with kinact(M^−1s^−1)<100000 are listed as “C”)

Structure (SMILES): CC[C@@H](C(=O)NC(CC(=O)O)C(=O)CF)n1cnc2ccc(Sc3cccc(F)c3)cc2c1=O (stereo partly drawn) [Compound 17, 5-Fluoro-3{(2S)-2[6-(3-fluoro-phenylsulfanyl)-4-oxo-4H-quinazolin-3-yl]-butyrylamino}-4-oxo-pentanoic acid]
IC50 [1]: 1000 to 10000 nM | IC50 [2]: 100 to 500 nM | kinact Caspase-3 [3]: A (Compounds with kinact(M^−1s^−1)>500000 are listed as “A”) | kinact Caspase-1 [4]: A (Compounds with kinact(M^−1s^−1)>500000 are listed as “A”) | kinact Caspase-8 [5]: A (Compounds with kinact(M^−1s^−1)>500000 are listed as “A”)

Further lines, with some results ahead:

IC50 [1]: 1000 to 10000 nM
Structure (SMILES): CC[C@@H](C(=O)NC(CC(=O)O)C(=O)CF)n1ccc2cc(C(F)(F)F)ccc2c1=O (stereo in doubt) [Compound 4, (S)-3-[2-(6-trifluoromethyl-1-oxo-1H-isoquinolin-2-yl)-butyrylamino]-5-fluoro-4-oxo-pentanoic acid]
IC50 [2]: > 500 nM | kinact Caspase-3 [3]: B (Compounds with kinact(M^−1s^−1) between 100000 and 500000 are listed as “B”) | kinact Caspase-1 [4]: B (Compounds with kinact(M^−1s^−1) between 100000 and 500000 are listed as “B”) | kinact Caspase-8 [5]: C (Compounds with kinact(M^−1s^−1)<100000 are listed as “C”)

IC50 [1]: > 10000 nM
Structure (SMILES): CC[C@@H](C(=O)N[C@@H](CC(=O)O)C(=O)COc1c(F)c(F)cc(F)c1F)n1ccc2ccccc2c1=O [Compound 9, (S,S)-3-[2-(1-oxo-1H-isoquinolin-2-yl)-butyrylamino]-4-oxo-5-(2,3,5,6-tetrafluoro-phenoxy)-pentanoic acid]
IC50 [2]: 100 to 500 nM | kinact Caspase-3 [3]: B (Compounds with kinact(M^−1s^−1) between 100000 and 500000 are listed as “B”) | kinact Caspase-1 [4]: B (Compounds with kinact(M^−1s^−1) between 100000 and 500000 are listed as “B”) | kinact Caspase-8 [5]: C (Compounds with kinact(M^−1s^−1)<100000 are listed as “C”)

IC50 [1]: 1000 to 10000 nM
Structure (SMILES): CC[C@@H](C(=O)NC(CC(=O)O)C(=O)CF)n1ccc2ccc(-c3ccccc3)cc2c1=O (mixture of isomers) [Compound 21, (S)-3-[2-(7-phenyl-1-oxo-1H-isoquinolin-2-yl)-butyrylamino]-5-fluoro-4-oxo-pentanoic acid]
IC50 [2]: 100 to 500 nM | kinact Caspase-3 [3]: A (Compounds with kinact(M^−1s^−1)>500000 are listed as “A”) | kinact Caspase-1 [4]: A (Compounds with kinact(M^−1s^−1)>500000 are listed as “A”) | kinact Caspase-8 [5]: A (Compounds with kinact(M^−1s^−1)>500000 are listed as “A”)
